Test results published in patent publication US20240238242A1, “EGCG buccal tablet and use thereof” (priority 2023, published 2024).
Where two headings read alike, the source gives them in different places.

Test system: Novel enterovirus D68 (EV-D68)
Type: cell-based
Details: for CPE test (virus replication in cell wells) / CPE test (virus replication in the cell wells): wells 1-10; for average inactivation efficiency against virus / inactivation efficiency against the virus: EV-D68 virus; for average inactivation efficiency against virus: three experiments; for CPE test per cell well: first experiment; for inactivation efficiency against the virus: single experiment

For O=C(O[C@@H]1Cc2c(O)cc(O)cc2O[C@@H]1c1cc(O)c(O)c(O)c1)c1cc(O)c(O)c(O)c1 [EGCG, Epigallocatechin gallate], the “CPE test (virus replication in cell wells)” value (1 mM EGCG + virus, 1 minute, dilution factor 10^4, second experiment) was “+”, the “CPE test (virus replication in cell wells)” value (1 mM EGCG + virus, 1 minute, dilution factor 10^4, third experiment) was “+” and the “CPE test (virus replication in cell wells)” value (1 mM EGCG + virus, 1 minute, dilution factor 10^5, second experiment) was “+”. For the same molecule, the “CPE test (virus replication in cell wells)” value (1 mM EGCG + virus, 1 minute, dilution factor 10^5, third experiment) was “+”, the “CPE test (virus replication in cell wells)” value (1 mM EGCG + virus, 1 minute, dilution factor 10^6, second experiment) was “+ and −” and the “CPE test (virus replication in cell wells)” value (1 mM EGCG + virus, 1 minute, dilution factor 10^6, third experiment) was “+ and −”. For the same molecule, the “CPE test (virus replication in cell wells)” value (1 mM EGCG + virus, 1 minute, dilution factor 10^7, second experiment) was “− and +”, the “CPE test (virus replication in cell wells)” value (1 mM EGCG + virus, 1 minute, dilution factor 10^7, third experiment) was “− and +” and the “CPE test (virus replication in cell wells)” value (1 mM EGCG + virus, 1 minute, dilution factor 10^8, second experiment) was “−”. For the same molecule, the “CPE test (virus replication in cell wells)” value (1 mM EGCG + virus, 1 minute, dilution factor 10^8, third experiment) was “−”, the “CPE test (virus replication in the cell wells)” value (1 mM EGCG + virus, co-incubated 5 minute, dilution factor 10^1, first experiment) was “+” and the “CPE test (virus replication in the cell wells)” value (1 mM EGCG + virus, co-incubated 5 minute, dilution factor 10^1, second experiment) was “+”. For the same molecule, the “CPE test (virus replication in the cell wells)” value (1 mM EGCG + virus, co-incubated 5 minute, dilution factor 10^2, first experiment) was “+”, the “CPE test (virus replication in the cell wells)” value (1 mM EGCG + virus, co-incubated 5 minute, dilution factor 10^2, second experiment) was “+” and the “CPE test (virus replication in the cell wells)” value (1 mM EGCG + virus, co-incubated 5 minute, dilution factor 10^3, first experiment) was “+”. The “CPE test (virus replication in the cell wells)” value (1 mM EGCG + virus, co-incubated 5 minute, dilution factor 10^3, second experiment) was “+”, the “CPE test (virus replication in the cell wells)” value (1 mM EGCG + virus, co-incubated 5 minute, dilution factor 10^4, first experiment) was “+” and the “CPE test (virus replication in the cell wells)” value (1 mM EGCG + virus, co-incubated 5 minute, dilution factor 10^4, second experiment) was “+”. For the same molecule, the “CPE test (virus replication in the cell wells)” value (1 mM EGCG + virus, co-incubated 5 minute, dilution factor 10^5, first experiment) was “+”, the “CPE test (virus replication in the cell wells)” value (1 mM EGCG + virus, co-incubated 5 minute, dilution factor 10^5, second experiment) was “+” and the “CPE test (virus replication in the cell wells)” value (1 mM EGCG + virus, co-incubated 5 minute, dilution factor 10^6, first experiment) was “+ and −”. The “CPE test (virus replication in the cell wells)” value (1 mM EGCG + virus, co-incubated 5 minute, dilution factor 10^6, second experiment) was “+ and −”, the “CPE test (virus replication in the cell wells)” value (1 mM EGCG + virus, co-incubated 5 minute, dilution factor 10^7, first experiment) was “−” and the “CPE test (virus replication in the cell wells)” value (1 mM EGCG + virus, co-incubated 5 minute, dilution factor 10^7, second experiment) was “−”. The “CPE test (virus replication in the cell wells)” value (1 mM EGCG + virus, co-incubated 5 minute, dilution factor 10^8, first experiment) was “−”, the “CPE test (virus replication in the cell wells)” value (1 mM EGCG + virus, co-incubated 5 minute, dilution factor 10^8, second experiment) was “−” and the “average inactivation efficiency against virus” value (“average inactivation efficiency” below) (1 mM EGCG, 1 minute) was 41.23%. For the same molecule, the “average inactivation efficiency” value (1 mM EGCG, 5 minutes) was 35.78%, the “CPE test per cell well” value (5 mM EGCG + EV-D68 virus, 1 minute, dilution factor 10^2, wells 1-10) was “+” and the “CPE test per cell well” value (5 mM EGCG + EV-D68 virus, 1 minute, dilution factor 10^3, wells 1-10) was “+”. The “CPE test per cell well” value (5 mM EGCG + EV-D68 virus, 1 minute, dilution factor 10^4, wells 1-10) was “+”, the “CPE test per cell well” value (5 mM EGCG + EV-D68 virus, 1 minute, dilution factor 10^5, wells 1-10) was “+” and the “CPE test per cell well” value (5 mM EGCG + EV-D68 virus, 1 minute, dilution factor 10^6, wells 1-10) was “− and +”. For the same molecule, the “CPE test per cell well” value (5 mM EGCG + EV-D68 virus, 1 minute, dilution factor 10^7, wells 1-10) was “− and +”, the “CPE test per cell well” value (5 mM EGCG + EV-D68 virus, 1 minute, dilution factor 10^8, wells 1-10) was “−” and the “CPE test (virus replication in cell wells)” value (5 mM EGCG + EV-D68 virus, co-incubated 5 minute, third experiment, dilution factor 10^2) was “+”. For the same molecule, the “CPE test (virus replication in cell wells)” value (5 mM EGCG + EV-D68 virus, co-incubated 5 minute, third experiment, dilution factor 10^3) was “+”, the “CPE test (virus replication in cell wells)” value (5 mM EGCG + EV-D68 virus, co-incubated 5 minute, third experiment, dilution factor 10^4) was “+” and the “CPE test (virus replication in cell wells)” value (5 mM EGCG + EV-D68 virus, co-incubated 5 minute, third experiment, dilution factor 10^5) was “+”. For the same molecule, the “CPE test (virus replication in cell wells)” value (5 mM EGCG + EV-D68 virus, co-incubated 5 minute, third experiment, dilution factor 10^6) was “− and +”, the “CPE test (virus replication in cell wells)” value (5 mM EGCG + EV-D68 virus, co-incubated 5 minute, third experiment, dilution factor 10^7) was “−” and the “CPE test (virus replication in cell wells)” value (5 mM EGCG + EV-D68 virus, co-incubated 5 minute, third experiment, dilution factor 10^8) was “−”. For the same molecule, the “CPE test (virus replication in cell wells)” value (5 mM EGCG + virus, 1 minute, dilution factor 10^1, third experiment) was “+”, the “CPE test (virus replication in cell wells)” value (5 mM EGCG + virus, 1 minute, dilution factor 10^2, second experiment) was “+” and the “CPE test (virus replication in cell wells)” value (5 mM EGCG + virus, 1 minute, dilution factor 10^2, third experiment) was “+”. For the same molecule, the “CPE test (virus replication in cell wells)” value (5 mM EGCG + virus, 1 minute, dilution factor 10^3, second experiment) was “+”, the “CPE test (virus replication in cell wells)” value (5 mM EGCG + virus, 1 minute, dilution factor 10^3, third experiment) was “+” and the “CPE test (virus replication in cell wells)” value (5 mM EGCG + virus, 1 minute, dilution factor 10^4, second experiment) was “+”. The “CPE test (virus replication in cell wells)” value (5 mM EGCG + virus, 1 minute, dilution factor 10^4, third experiment) was “+”, the “CPE test (virus replication in cell wells)” value (5 mM EGCG + virus, 1 minute, dilution factor 10^5, second experiment) was “+” and the “CPE test (virus replication in cell wells)” value (5 mM EGCG + virus, 1 minute, dilution factor 10^5, third experiment) was “+”. For the same molecule, the “CPE test (virus replication in cell wells)” value (5 mM EGCG + virus, 1 minute, dilution factor 10^6, second experiment) was “+ and −”, the “CPE test (virus replication in cell wells)” value (5 mM EGCG + virus, 1 minute, dilution factor 10^6, third experiment) was “+ and −” and the “CPE test (virus replication in cell wells)” value (5 mM EGCG + virus, 1 minute, dilution factor 10^7, second experiment) was “−”. For the same molecule, the “CPE test (virus replication in cell wells)” value (5 mM EGCG + virus, 1 minute, dilution factor 10^7, third experiment) was “− and +”, the “CPE test (virus replication in cell wells)” value (5 mM EGCG + virus, 1 minute, dilution factor 10^8, second experiment) was “−” and the “CPE test (virus replication in cell wells)” value (5 mM EGCG + virus, 1 minute, dilution factor 10^8, third experiment) was “−”. The “CPE test (virus replication in the cell wells)” value (5 mM EGCG + virus, co-incubated 5 minute, dilution factor 10^2, first experiment) was “+”, the “CPE test (virus replication in the cell wells)” value (5 mM EGCG + virus, co-incubated 5 minute, dilution factor 10^2, second experiment) was “+” and the “CPE test (virus replication in the cell wells)” value (5 mM EGCG + virus, co-incubated 5 minute, dilution factor 10^3, first experiment) was “+”. The “CPE test (virus replication in the cell wells)” value (5 mM EGCG + virus, co-incubated 5 minute, dilution factor 10^3, second experiment) was “+”, the “CPE test (virus replication in the cell wells)” value (5 mM EGCG + virus, co-incubated 5 minute, dilution factor 10^4, first experiment) was “+” and the “CPE test (virus replication in the cell wells)” value (5 mM EGCG + virus, co-incubated 5 minute, dilution factor 10^4, second experiment) was “+”. The “CPE test (virus replication in the cell wells)” value (5 mM EGCG + virus, co-incubated 5 minute, dilution factor 10^5, first experiment) was “+”, the “CPE test (virus replication in the cell wells)” value (5 mM EGCG + virus, co-incubated 5 minute, dilution factor 10^5, second experiment) was “+” and the “CPE test (virus replication in the cell wells)” value (5 mM EGCG + virus, co-incubated 5 minute, dilution factor 10^6, first experiment) was “− and +”. For the same molecule, the “CPE test (virus replication in the cell wells)” value (5 mM EGCG + virus, co-incubated 5 minute, dilution factor 10^6, second experiment) was “+ and −”, the “CPE test (virus replication in the cell wells)” value (5 mM EGCG + virus, co-incubated 5 minute, dilution factor 10^7, first experiment) was “−” and the “CPE test (virus replication in the cell wells)” value (5 mM EGCG + virus, co-incubated 5 minute, dilution factor 10^7, second experiment) was “−”. For the same molecule, the “CPE test (virus replication in the cell wells)” value (5 mM EGCG + virus, co-incubated 5 minute, dilution factor 10^8, first experiment) was “−”, the “CPE test (virus replication in the cell wells)” value (5 mM EGCG + virus, co-incubated 5 minute, dilution factor 10^8, second experiment) was “−” and the “inactivation efficiency against the virus” value (5 mM EGCG, 1 minute) was 80.05%. For the same molecule, the “average inactivation efficiency” value (5 mM EGCG, 1 minute) was 66.10%, the “inactivation efficiency against the virus” value (5 mM EGCG, 5 minutes) was 74.88% and the “average inactivation efficiency” value (5 mM EGCG, 5 minutes) was 66.55%.
